Data taken from patent publication US20190060239A1, “Technology for the Preparation of Microparticles” (Ansun Biopharma, Inc., priority 2007, published 2019).

What was measured:
Assay type in all cases: physicochemical
[1] = Microsphere quality score by light microscopy (scoring system of Table 13); details: for microsphere formation: control
Procedure: For each of the compounds listed in A-D above, and for DAS181, cocktail solutions containing 2 mg/ml of compound dissolved in an aqueous solvent and various counterions, antisolvents and pH, as listed below, were prepared in a 96-well microtiter plate (0.1 ml cocktail/well) at room temperature. Control solutions contained either solvent or antisolvent alone, with or without the counterion. Cocktails were cooled by placing in a freezer. The chilled plates were transferred onto pre-chilled (−45° C.) shelves of a Millrock Lab Series Lyophilizer, and the vacuum was applied. The frozen cocktail solutions were allowed to lyophilize for 16 hours.
The lyophilized powders from the bottoms of the wells were transferred onto glass slides and analyzed by light microscopy for appearance. The quality of the product microspheres was scored based on the uniformity of the microspheres, the absence of undesirable non-microsphere particles (glass-like crystalline forms), and the absence of aggregates.
Arginine was used as counterion and isopropanol was used as antisolvent. Concentrations of each of the cocktail components—the compound, the counterion and the antisolvent—were varied as shown below in Table 15, and the effect on microsphere quality assessed.
Experiments were performed to evaluate the effect of antisolvent and counterion concentration variation on the formation of microspheres. The peptides leuprolide and somatostatin, and the antibiotics vancomycin and tobramycin, were tested under a variety of conditions for forming microspheres. Samples were analyzed in 96-well plates as described in the previous Examples.
The experiments were performed using PGI2 and an analog of PGI2, Ciprostene, at a concentration of 2 mg/ml. Cocktail solutions were mixed at room temperature, then cooled by placing in a freezer. The chilled plates were transferred onto pre-chilled (−45° C.) shelves of a Millrock Lab Series Lyophilizer, and the vacuum was applied. The frozen cocktail solutions were allowed to lyophilize for 16 hours.
Because the resulting prostaglandin microspheres are hygroscopic, upon microsphere initiation, the humidity was maintained at low levels during the experiments, using a nitrogen gas tank attached to the backfill system on the lyophilizer. Each of the reaction tubes was flushed with N2. In addition, the backfill valve on the lyophilizer was left open to continually flush a low humidity atmosphere over the samples. The microscope used to visualize the resulting microspheres was contained within a plastic bag that was continually purged with dry N2. Sample tubes were placed under the bag to equilibrate for approximately 30 seconds, before opening and spreading onto the glass slide.
The compound/counterion/antisolvent conditions were as follows:
Experiments were performed with 200 μl of each of the above cocktail solutions in a 2 ml lyophilization bottle (first flash freeze condition), and 25 μl of each of the above cocktail solutions in a PCR tube (second flash freeze condition). The samples in the lyophilization bottles took approximately 15 seconds to freeze. The samples in the PCR tubes took approximately 3 seconds or less to freeze.
The cocktails in the 96-well plates were cooled by placing in a freezer. The chilled plates were transferred onto pre-chilled (−45° C.) shelves of a Millrock Lab Series Lyophilizer, and a vacuum was applied. The frozen cocktail solutions were allowed to lyophilize for 16 hours.
The lyophilized powders from the bottoms of the wells were transferred onto glass slides and analyzed by light microscopy for appearance.

[2] = Microsphere formation, size and appearance by light microscopy; details: for Microsphere Size (microns): 5 mg/ml protein
[3] = Cascade Impaction of vancomycin microspheres, New Generation Impactor
Procedure: Vancomycin was dissolved in aqueous buffer at a final concentration of 10 mg/ml. The cocktail contained 5 mM sodium citrate pH 5.0 as counterion and 15% v/v n-propanol as anti-solvent. A 2 ml aliquot of cocktail was frozen in a 10-ml lyophilization vial placed in a −80° C. freezer for 1 hour. The frozen vial was transferred onto a −45° C. lyophilizer shelf and freeze dried for 36 hours.
The microspheres prepared as described in Example 5 were tested by Cascade Impaction using a New Generation Impactor. The deposition of pharmaceuticals in the respiratory tract can be predicted by the aerodynamic behavior of particles (microspheres) on the stages/collection plates of the cascade impactor.
The microspheres (10 mg) were loaded into HPMC (hydroxypropyl methylcellulose) capsule. The capsule was placed into a CycloHaler (PharmaChemie) dry powder inhaler and subjected to cascade impaction. The collection plates of the impactor representing various areas/stages of deposition post-inhalation (trachea, primary and secondary bronchi, terminal bronchi, alveoli, etc.) were coated with silicon spray to prevent bouncing of the microspheres. The microspheres from the stages and collection plates were recovered into a phosphate buffered saline containing 0.1% Tween, and the amount of deposited vancomycin recovered from each stage and collection plate was quantified by measuring absorbance at 280 nm.

In the case of `CCNC(=O)[C@@H]1CCCN1C(=O)[C@H](CCCNC(=N)N)NC(=O)[C@H](CC(C)C)NC(=O)[C@@H](CC(C)C)NC(=O)[C@H](Cc1ccc(O)cc1)NC(=O)[C@H](CO)NC(=O)[C@H](Cc1c[nH]c2ccccc12)NC(=O)[C@H](Cc1c[nH]cn1)NC(=O)[C@@H]1CCC(=O)N1` [leuprolide], the “Microsphere Quality” value ([1]; 2 mM Na-citrate, 15% isopropanol, pH 4.0) is reported as 5/6.

For Lysozyme: purchased from Sigma, the “Microsphere Size (microns)” value ([2]; 5 mM citrate, pH 8.0, 5% isopropanol) was 4-5 microns.

For Green fluorescent protein, the “Microsphere Size (microns)” value ([2]; 5 mM pivalic acid, pH 7.0, 10% 1-propanol) was 0.5-1.5 microns.

For `CN[C@H](CC(C)C)C(=O)N[C@H]1C(=O)N[C@@H](CC(N)=O)C(=O)N[C@H]2C(=O)N[C@H]3C(=O)N[C@H](C(=O)N[C@H](C(=O)O)c4cc(O)cc(O)c4-c4cc3ccc4O)[C@H](O)c3ccc(c(Cl)c3)Oc3cc2cc(c3O[C@@H]2O[C@H](CO)[C@@H](O)[C@H](O)[C@H]2O[C@H]2C[C@](C)(N)[C@H](O)[C@H](C)O2)Oc2ccc(cc2Cl)[C@H]1O` [Vancomycin], the “Percent Deposition of Vancomycin” value ([3]; Capsule + device, size cut-off NA) was 37.57%, the “Percent Deposition of Vancomycin” value ([3]; Throat, size cut-off >10 microns, oral cavity) was 10.48% and the “Percent Deposition of Vancomycin” value ([3]; impactor component 1, size cut-off >8.06 microns, Oral cavity/pharynx) was 3.33%. For the same molecule, the “Percent Deposition of Vancomycin” value ([3]; impactor component 2, size cut-off 4.46-8.06 microns, pharynx) was 7.71%, the “Percent Deposition of Vancomycin” value ([3]; impactor component 3, size cut-off 2.82-4.46 microns, trachea/bronchi) was 15.47% and the “Percent Deposition of Vancomycin” value ([3]; impactor component 4, size cut-off 1.66-2.82 microns, secondary bronchi) was 16.69%. The “Percent Deposition of Vancomycin” value ([3]; impactor component 5, size cut-off 0.94-1.66 microns, terminal bronchi/alveoli) was 6.38%, the “Percent Deposition of Vancomycin” value ([3]; impactor component 6, size cut-off 0.55-0.94 microns, alveoli) was 1.59% and the “Percent Deposition of Vancomycin” value ([3]; impactor component 7, size cut-off 0.34-0.55 microns, alveoli) was 0.51%. The “Percent Deposition of Vancomycin” value ([3]; impactor component 8, size cut-off <0.34 microns, alveoli) was 0.27%, the “geometric size of microspheres” value ([2]; 10 mg/ml vancomycin, 5 mM sodium citrate pH 5.0, 15% v/v n-propanol, light microscopy) was 1.0-3.0 microns and the “Microsphere Quality” value ([1]; compound 2 mg/ml, Na-citrate, pH 5.0 7.5 mM, Isopropanol 5%) was 9/8. The “Microsphere Quality” value ([1]; compound 2 mg/ml, Na-citrate, pH 5.0 […], Isopropanol 5%) was 9/8 and the microsphere rating ([1]; pH 5) was 9/10.

For `C=C(CC(=O)O)C(=O)O` [itaconic acid], the microsphere formation ([1]; no added compound: 2 mM itaconic acid buffered to pH 7, 5% isopropanol) was “hygroscopic microspheres” and the microsphere formation ([1]; no added compound: 2 mM itaconic acid buffered with sodium hydroxide at pH 4, 15% isopropanol) was “microspheres were formed”.

In the case of `CC1(C)S[C@@H]2[C@H](NC(=O)[C@H](N)c3ccccc3)C(=O)N2[C@H]1C(=O)O` [Ampicillin], the “Microsphere Quality” value ([1]; 2 mg/ml compound, 2 mM Na-Citrate, 5% n-propanol, pH 5.0) is reported as 3/4 and the “Microsphere Quality” value ([1]; 2 mg/ml compound, 2 mM Na-Glutamate, 5% n-propanol, pH 4.0) is reported as 3-5.

For `CCCCC[C@H](O)/C=C/[C@@H]1[C@H]2C/C(=C/CCCC(=O)O)O[C@H]2C[C@H]1O` [Prostaglandin I2], the “Microsphere Quality” value ([1]; compound 2 mg/ml, 2 mM Arginine, pH 9, 20% n-propanol, 5% t-butanol) was 7/8, the “Microsphere Quality” value ([1]; compound 2 mg/ml, 2 mM Arginine, pH 9, 20% n-propanol, 55% t-butanol) was 5/6 and the “Microsphere Quality” value ([1]; compound 2 mg/ml, 2 mM TEA, pH 11, 20% n-propanol, 5% t-butanol) was 7/8. The “Microsphere Quality” value ([1]; compound 2 mg/ml, 2 mM TEA, pH 11, 30% n-propanol, 0% t-butanol) was 2/3.

For Hemoglobin, the “Microsphere Size (microns)” value ([2]; 5 mM glycine, pH 5.0, 10% isopropanol) was 0.4-0.7 microns.

In the case of `NC[C@H]1O[C@H](O[C@H]2[C@H](O)[C@@H](O[C@H]3O[C@H](CO)[C@@H](O)[C@H](N)[C@H]3O)[C@H](N)C[C@@H]2N)[C@H](N)C[C@@H]1O` [Tobramycin], the “Microsphere Quality” value ([1]; compound 2 mg/ml, Itaconic acid-Na, pH 4.0 2 mM, Isopropanol 0%) is reported as 4/5, the “Microsphere Quality” value ([1]; compound 2 mg/ml, Itaconic acid-Na, pH 4.0 2 mM, Isopropanol 5%) is reported as 7/8 and the “Microsphere Quality” value ([1]; compound 2 mg/ml, Itaconic acid-Na, pH 4.0 2 mM, Isopropanol 30%) is reported as 8/9. For the same molecule, the “Microsphere Quality” value ([1]; compound 2 mg/ml, Itaconic acid-Na, pH 4.0 2 mM, Isopropanol 40%) was 6/7, the “Microsphere Quality” value ([1]; compound 2 mg/ml, Itaconic acid-Na, pH 4.0 2 mM, Isopropanol […]) was 7/8 and the “Microsphere Quality” value ([1]; compound 2 mg/ml, Itaconic acid-Na, pH 4.0 5 mM, Isopropanol 5%) was “Crystals”. The “Microsphere Quality” value ([1]; compound 2 mg/ml, Itaconic acid-Na, pH 4.0 10 mM, Isopropanol 5%) was “Crystals”, the “Microsphere Quality” value ([1]; compound 2 mg/ml, Itaconic acid-Na, pH 4.0 15 mM, Isopropanol 5%) was “Crystals” and the “Microsphere Quality” value ([1]; compound 2 mg/ml, Itaconic acid-Na, pH 4.0 17 mM, Isopropanol 5%) was “Crystals”. For the same molecule, the “Microsphere Quality” value ([1]; pH 4) was “Crystals”.

B1: RNase A: purchased from Sigma (protein, UniProt P61823 27-150, looked up)
Ribonuclease pancreatic: KETAAAKFERQHMDSSTSAASSSNYCNQMMKSRNLTKDRCKPVNTFVHESLADVQAVCSQKNVACKNGQTNCYQSYSTMSITDCRETGSSKYPNCAYKTTQANKHIIVACEGNPYVPVHFDASV
In the case of B1, the “Microsphere Size (microns)” value ([2]; 5 mM citrate, pH 4.0, 5% isopropanol) is reported as 0.4-1 microns.

B2: Trypsin: purchased from Worthington (protein, UniProt P00760 24-246, looked up)
Serine protease 1: IVGGYTCGANTVPYQVSLNSGYHFCGGSLINSQWVVSAAHCYKSGIQVRLGEDNINVVEGNEQFISASKSIVHPSYNSNTLNNDIMLIKLKSAASLNSRVASISLPTSCASAGTQCLISGWGNTKSSGTSYPDVLKCLKAPILSDSSCKSAYPGQITSNMFCAGYLEGGKDSCQGDSGGPVVCSGKLQGIVSWGSGCAQKNKPGVYTKVCNYVSWIKQTIASN
In the case of B2, the “Microsphere Size (microns)” value ([2]; 5 mM arginine, pH 8.0, 5% isopropanol) is reported as 0.5-1 microns.

B3: Ovalbumin: purchased from Sigma (protein, UniProt P01012 2-386, looked up)
Ovalbumin: GSIGAASMEFCFDVFKELKVHHANENIFYCPIAIMSALAMVYLGAKDSTRTQINKVVRFDKLPGFGDSIEAQCGTSVNVHSSLRDILNQITKPNDVYSFSLASRLYAEERYPILPEYLQCVKELYRGGLEPINFQTAADQARELINSWVESQTNGIIRNVLQPSSVDSQTAMVLVNAIVFKGLWEKAFKDEDTQAMPFRVTEQESKPVQMMYQIGLFRVASMASEKMKILELPFASGTMSMLVLLPDEVSGLEQLESIINFEKLTEWTSSNVMEERKIKVYLPRMKMEEKYNLTSVLMAMGITDVFSSSANLSGISSAESLKISQAVHAAHAEINEAGREVVGSAEAGVDAASVSEEFRADHPFLFCIKHIATNAVLFFGRCVSP
With B3 the “Microsphere Size (microns)” value ([2]; 5 mM pivalic acid, pH 4.0, 10% isopropanol) was 0.5-1 microns.

B4: PIN 168 (PI8): hexahistidine-tagged human proteinase inhibitor 8 (SEQ ID NO:15) (protein, listed as Homo sapiens)
chain: MDDLCEANGTFAISLFKILGEEDNSRNVFFSPMSISSALAMVFMGAKGSTAAQMSQALCLYKDGDIHRGFQSLLSEVNRTGTQYLLRTANRLFGEKTCDFLPDFKEYCQKFYQAELEELSFAEDTEECRKHINDWVAEKTEGKISEVLDAGTVDPLTKLVLVNAIYFKGKWNEQFDRKYTRGMLFKTNEEKKTVQMMFKEAKFKMGYADEVHTQVLELPYVEEELSMVILLPDDNTDLAVVEKALTYEKFKAWTNSEKLTKSKVQVFLPRLKLEESYDLEPFLRRLGMIDAFDEAKADFSGMSTEKNVPLSKVAHKCFVEVNEEGTEAAAATAVVRNSRCSRMEPRFCADHPFLFFIRRHKTNCILFCGRFSSP
modifications: hexahistidine tag; protease inhibitor 8 (PI8) (Serpin B8)
With B4 the “Microsphere Size (microns)” value ([2]; 5 mM citrate, pH 5.0, 7% isopropanol) was 2-5 microns.
